One experiment relates to TuM1 module. The experiment can be described thus: Gene set enrichment analysis of tumor module expression in tamoxifen treated MCF7 cells. In kind it is cell-based. The conditions noted are these: 10 μM tamoxifen, harvested at 48 hrs; FDR=0.05. The protocol:
MCF-7 breast cancer cells were obtained from American Type Culture Collection center (Manassas, Va.), and cells were cultured in Dulbecco's modified Eagle medium (DMEM) (Gibco, Grand Island, N.Y.) supplemented with 10% fetal bovine serum (FBS), 100 U/mL penicillin, 100 U/mL streptomycin, and 2 mM L-glutamine. Before tamoxifen treatment, cells were washed three times in PBS and maintained in phenol red free DMEM with 5% Dextran charcoal-stripped FBS (HyClone Laboratories, Pittsburgh, Pa.) for 24 hrs. Subsequently cells were treated with 10 μM tamoxifen (Sigma) and harvested at 48 hrs. Control sister cultures were treated with an equivalent volume of the vehicle (0.1% ethanol).
GSEA was used to ask if expression of the tumor module genes might be affected by tamoxifen treatment. Four control samples and two post-treatment samples (See Materials and Methods) were used for GSEA analysis. Three modules (TuM4, 5 and 6) were filtered out due to insufficient number of genes (<10) expressed in MCF7 cell lines.
The observation that TuM1 is expressed in a subset of ER+ tumors raises the possibility that expression of this module may depend, at least in some part, on ER activity and signaling. To investigate the relationship between TuM1 expression and ER signaling, we tested the responsiveness of TuM1 to ER activity using an in vitro system. […]

For a further experiment, the system named is MCF-7 cells. The experiment can be described thus: Tamoxifen induced apoptosis, Annexin-V flow cytometry in control and RLN2 silenced MCF-7 cells. In kind it is cell-based. The conditions noted are these: 1 μM tamoxifen for 48 hrs, analyzed 72 hrs after withdrawal. The protocol: FIG. 13B. Flow cytometric analysis of Tamoxifen sensitivity in RLN2 silenced MCF-7 cells: RLN2 silenced and control cells were treated with 1 μm Tamoxifen or equivalent quantity of vehicle for 48 hrs and subsequently, the treatment was withdrawn. After 72 hrs, Annexin-V staining positive cells were scored in Flow cytometry, which is a measure for tamoxifen induced apoptosis.
MCF-7 cells (ATCC) were maintained in DMEM growth media supplemented with 10% fetal bovine serum (FBS), 100 U/mL penicillin, 100 U/mL streptomycin, and 2 mM L-glutamine. […] RLN2 silenced and control cells were treated with 1 μM Tamoxifen or equivalent quantity of vehicle for 48 hrs and subsequently, the treatment was withdrawn by changing the culture media to DMEM with 5% DCC. After 72 hrs, cells were trypsinized and stained with Annexin-V-Fluorescein and propidium iodide as recommended by the manufacturer (Roche) and the analyzed in Flow cytometer (Beckman-Coulter). The population of annexin-V positive cells was scored as the representation of the percentages of apoptotic cells.
To functionally investigate the association of the TuM1 signature with a tumor's response to anti-hormonal treatment, the role of a representative TuM1 gene, Relaxin2 (RLN2) was assessed in a ER+ breast cancer cellular model. […]
(A flow cytometer gives signals particle by particle.)

Experimental findings from patent US20080193938A1, “Materials And Methods Relating To Breast Cancer Classification” (priority 2005, published 2008) are described below.

The structures appear in SMILES notation.

Take `CC/C(=C(\c1ccccc1)c1ccc(OCCN(C)C)cc1)c1ccccc1` [tamoxifen]: the “TuM1 expression in tam-treated MCF7 cells compared to controls (GSEA)” value in the experiment with TuM1 module is “significantly downregulated”. For the same compound, the entries for the “percentage of apoptotic (annexin-V-staining positive) cells” value in the experiment with MCF-7 cells (RLN2 silenced (siRNA) MCF-7 cells) and with MCF-7 cells (control MCF-7 cells) were “about 23%” and “about 73%”, respectively.
